Molecules are shown by their SMILES. Where two headings read alike, the source gives them in different places.

The values that follow come from patent US20260070887A1 (Shenzhen Zhongge Biological Technology Co., Ltd., priority 2022, published 2026).

In one experiment the target is KIF18A (Homo sapiens (Human), UniProt Q8NI77). The experiment in a line: KIF18A ATPase activity under tubulin stimulation (ADP-Glo assay). It is filed as biochemical. Particulars: KIF18A 30 nM, ATP 150 μM, pig microtubules. In general terms: ADP-Glo turns the ADP formed in a reaction into a luminescent signal.
Chain of KIF18A (Q8NI77 whole entry): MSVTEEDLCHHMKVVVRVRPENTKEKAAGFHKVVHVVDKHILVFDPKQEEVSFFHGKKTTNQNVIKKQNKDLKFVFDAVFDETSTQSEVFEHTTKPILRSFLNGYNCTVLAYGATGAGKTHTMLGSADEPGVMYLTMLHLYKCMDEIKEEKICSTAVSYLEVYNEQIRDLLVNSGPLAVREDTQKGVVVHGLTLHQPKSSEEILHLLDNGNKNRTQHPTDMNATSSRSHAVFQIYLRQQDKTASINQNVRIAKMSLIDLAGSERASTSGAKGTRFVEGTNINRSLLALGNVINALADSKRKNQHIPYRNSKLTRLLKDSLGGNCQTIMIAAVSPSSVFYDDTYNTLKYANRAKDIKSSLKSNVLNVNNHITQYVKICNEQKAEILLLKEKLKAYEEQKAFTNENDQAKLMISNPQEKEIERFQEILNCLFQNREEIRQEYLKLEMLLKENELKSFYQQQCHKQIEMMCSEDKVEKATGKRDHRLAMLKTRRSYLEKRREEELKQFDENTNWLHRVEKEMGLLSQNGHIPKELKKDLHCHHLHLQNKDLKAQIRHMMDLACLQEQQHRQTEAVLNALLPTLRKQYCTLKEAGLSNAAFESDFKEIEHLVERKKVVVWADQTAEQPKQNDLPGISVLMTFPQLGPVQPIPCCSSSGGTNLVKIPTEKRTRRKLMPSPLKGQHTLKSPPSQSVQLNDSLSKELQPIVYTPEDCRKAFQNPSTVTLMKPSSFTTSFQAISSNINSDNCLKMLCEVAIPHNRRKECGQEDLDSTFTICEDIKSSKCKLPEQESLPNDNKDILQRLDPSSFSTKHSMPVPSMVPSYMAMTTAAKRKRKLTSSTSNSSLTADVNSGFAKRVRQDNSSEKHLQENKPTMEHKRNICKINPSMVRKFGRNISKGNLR
Chain of KIF18A (P02550 whole entry partner): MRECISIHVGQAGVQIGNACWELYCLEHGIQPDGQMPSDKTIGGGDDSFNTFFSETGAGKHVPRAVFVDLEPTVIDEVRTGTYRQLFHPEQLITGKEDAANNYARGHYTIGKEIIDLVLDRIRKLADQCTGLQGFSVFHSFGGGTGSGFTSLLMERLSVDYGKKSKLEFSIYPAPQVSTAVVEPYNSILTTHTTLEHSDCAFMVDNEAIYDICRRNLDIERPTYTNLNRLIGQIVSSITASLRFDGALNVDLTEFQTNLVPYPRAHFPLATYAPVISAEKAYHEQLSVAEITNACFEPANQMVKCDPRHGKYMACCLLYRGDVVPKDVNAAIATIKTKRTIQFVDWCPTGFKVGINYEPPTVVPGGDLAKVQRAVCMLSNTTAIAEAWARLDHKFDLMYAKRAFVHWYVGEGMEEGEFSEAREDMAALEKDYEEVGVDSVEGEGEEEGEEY
Chain of KIF18A (P02554 whole entry partner): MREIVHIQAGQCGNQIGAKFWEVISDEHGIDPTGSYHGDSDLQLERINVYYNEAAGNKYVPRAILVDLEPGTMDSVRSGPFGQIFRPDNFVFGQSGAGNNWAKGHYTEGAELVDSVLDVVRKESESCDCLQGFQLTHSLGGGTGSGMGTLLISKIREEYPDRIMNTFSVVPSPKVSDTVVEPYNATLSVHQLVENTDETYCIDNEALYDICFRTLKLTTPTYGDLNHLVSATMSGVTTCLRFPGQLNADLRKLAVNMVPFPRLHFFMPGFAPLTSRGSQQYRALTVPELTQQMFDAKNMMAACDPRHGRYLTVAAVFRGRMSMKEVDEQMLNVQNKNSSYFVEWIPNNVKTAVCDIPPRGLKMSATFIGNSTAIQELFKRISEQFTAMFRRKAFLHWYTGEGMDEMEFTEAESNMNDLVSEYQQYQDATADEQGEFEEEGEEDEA
The next experiment deals with OVCAR-3 cells. The experiment in a line: OVCAR-3 cell proliferation (Cell Titer-Glo, 10 days). The experiment is classed as cell-based, human. The method in brief: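 400 cells per well were seeded onto pre-dispensed compound (final 0.12 nM to 10 μM) in RPMI-1640 with 20% FBS and insulin, then co-cultured for 10 days. Viability was read as Cell Titer-Glo luminescence, inhibition was taken against 0.1% DMSO control, and IC50 came from nonlinear concentration-inhibition regression.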
(In ATP-based viability assays light output follows the ATP content of the culture.)

The subject of the next experiment is HCC1954 cells. The experiment in a line: HCC1954 cell proliferation (Cell Titer-Glo, 6 days). Particulars: KIF18A-sensitive tumor cells. It is filed as cell-based. How it is done:
(§1) The inhibitory effect on the KIF18A target by the compounds of the present disclosure was evaluated by testing the inhibitory effect on proliferation of HCC1954 and HCC1395 cells by the compounds of the present disclosure.
(§2) HCC1954 (ATCC, CRL-2388) and HCC1395 (ATCC, CRL-2324) cells were cultured separately in RPMI-1640 complete medium (Gibco, A1049101) containing 20% fetal bovine serum (Gibco, 10099141C), 100 U penicillin, and 100 μg/mL streptomycin (Gibco, 15140-122). The Promega kit Cell Titer-Glo (Promega: G7572) was used in this method for test. • 1. HCC1954 (KIF18A-sensitive tumor cells) and HCC1395 (KIF18A-insensitive tumor cells) were cultured separately in T75 cell culture flasks (Corning, 430641), and the medium was placed in a 37° C., 5% CO2 incubator. • 2. When the cell density reached 70% to 80% (about 2 to 3 times per week), cells are passaged with trypsin (0.25% EDTA). • 3. The cell culture flask was taken out and the cells were separated by adding 2 mL of trypsin (0.25% EDTA source) for 5 minutes. • 4. Digestion was stopped by adding 8 mL of RPM1-1640 medium and the cell suspension was transferred to a centrifuge tube and centrifuged at 1000 rpm for 5 minutes. • 5. The cells were resuspended with 5 mL of RPMI-1640 medium. Cell density was adjusted to 5×10^3/mL (HCC1954), and 2.5×10^4/mL (HCC1395), respectively. • 6. 40 μL of cell solution was added to the 384-well plate (Corning, 3765). • 7. The 384-well plate was centrifuged at 1000 rpm for 1 minute. • 8. The cells were cultured overnight in a 37° C., 5% CO2 incubator. • 9. The next day, 40 nL of compound solution was added to the 384-well plate using Echo650. The plate was then placed in a 37° C., 5% CO2 incubator for 6 days. • 10. After 6 days, 20 μL of Cell-Titer-Glo (Promega, G7572) reagent was added per well. • 11. Luminescence values were measured using the EnVision Xcite Multilabel Reader (PerkinElmer, 2105-0020).
(§3) The percentage of inhibition of cell proliferation by the test compound at each concentration was calculated by comparing with the values of the control group (0.1% DMSO). The IC50 values of the compounds were obtained by concentration-inhibition rate nonlinear regression analysis of the test compounds using GraphPad Prism 9.

Another experiment relates to HCC1395 cells. The experiment in a line: HCC1395 cell proliferation (Cell Titer-Glo, 6 days). The experiment is classed as cell-based. Particulars: KIF18A-insensitive tumor cells. How it is done: as §1, §2, §3

Take `O=C(Nc1cccc2c1ccn2CC1CC1)c1ccc(NS(=O)(=O)CCO)cc1N1CCC2(CC1)CC2` [Example 9, N-(1-(cyclopropylmethyl)-1H-indole-4-(2-hydroxyethyl)sulfonamido)-2-(6-azaspiro[2.5]octan-6-yl)benzamide]: the 50% inhibitory concentration (IC50) against KIF18A is not above 0.05 µM; in the experiment on OVCAR-3 cells, 0.05 to 0.5 µM; in the experiment with HCC1954 cells, 0.01 to 0.5 µM; with HCC1395 cells, more than 5 µM.
Turning to `O=C(Nc1cccc2c1cc(Cl)n2CC1CC1)c1ccc(NS(=O)(=O)CCO)cc1N1CCC2(CC1)CC2` [Example 13, N-(2-chloro-1-(cyclopropylmethyl)-1H-indol-4-yl)-4-((2-hydroxyethyl)sulfonamide)-2-(6-azaspiro[2.5]octan-6-yl)benzamide], the IC50 at KIF18A was 0.05 to 0.5 µM; with OVCAR-3 cells, 0.05 to 0.5 µM; with HCC1954 cells, 0.01 to 0.5 µM; in the experiment with HCC1395 cells it was more than 5 µM.
Take `O=C(Nc1cccc2c1ncn2CC1CC1)c1ccc(NS(=O)(=O)CCO)cc1N1CCC2(CC1)CC2` [Example 16]: the IC50 on KIF18A is not above 0.05 µM; in the experiment with OVCAR-3 cells it was 0.05 to 0.5 µM; in the experiment on HCC1954 cells, 0.01 to 0.5 µM; with HCC1395 cells it was more than 5 µM.
For `O=C(Nc1cccc2c1oc(=O)n2CC1CC1)c1ccc(NS(=O)(=O)CCO)cc1N1CCC2(CC1)CC2` [Example 18, N-(3-(cyclopropylmethyl)-2-oxo-2,3-dihydrobenzo[d]oxazol-7-yl)-4-((2-hydroxyethyl)sulfonamido)-2-(6-azaspiro[2.5]oct-6-yl)benzamide], the half-inhibitory concentration (IC50) on KIF18A was not above 0.05 µM; with OVCAR-3 cells (Homo sapiens, OVCAR-3, 240 h), 0.05 to 0.5 µM; with HCC1954 cells (Homo sapiens, HCC1954, 144 h), more than 5 µM; in the experiment on HCC1395 cells (Homo sapiens, HCC1395, 144 h), more than 5 µM.
For `O=C(Nc1cc(F)cc2c1ccn2CC1CC1)c1ccc(NS(=O)(=O)CCO)cc1N1CCC2(CC1)CC2` [Example 50], the IC50 on KIF18A is 0.05 to 0.5 µM; with OVCAR-3 cells, 0.05 to 0.5 µM; in the experiment on HCC1954 cells, 0.01 to 0.5 µM; in the experiment with HCC1395 cells it was more than 5 µM.
Take `O=C(Nc1ccc(F)c2c1ccn2CC1CC1)c1ccc(NS(=O)(=O)CCO)cc1N1CCC2(CC1)CC2` [Example 56, N-(1-(cyclopropylmethyl)-7-fluoro-1H-indol-4-yl)-4-((2-hydroxyethyl)sulfonamido)-2-(6-azaspiro[2.5]octan-6-yl)benzamide]: the IC50 against KIF18A was 0.05 to 0.5 µM; in the experiment with OVCAR-3 cells (Homo sapiens, OVCAR-3, 240 h) it was 0.05 to 0.5 µM; in the experiment with HCC1954 cells (Homo sapiens, HCC1954, 144 h) it was 0.01 to 0.5 µM; with HCC1395 cells (Homo sapiens, HCC1395, 144 h), more than 5 µM.
`O=C(Nc1cccc2c1cc1n2CCCC1)c1ccc(NS(=O)(=O)CCO)cc1N1CCC2(CC1)CC2` [Example 126, 4-((2-hydroxyethyl)sulfonamide)-2-(6-azaspiro[2.5]octan-6-yl)-N-(6,7,8,9-tetrahydropyridine[1,2-a]indole-1)benzamide]: the concentration for half-maximal inhibition (IC50) at KIF18A was not above 0.05 µM; with OVCAR-3 cells, 0.05 to 0.5 µM; in the experiment with HCC1954 cells, 0.01 to 0.5 µM; in the experiment on HCC1395 cells, more than 5 µM.
In the case of `CN1CCn2c(cc3c(NC(=O)c4ccc(NS(=O)(=O)CCO)cc4N4CCC5(CC4)CC5)cccc32)C1` [Example 234, 4-(2-hydroxyethyl)sulfonamido-N-(2-methyl-1,2,3,4-tetrahydropyrazino[1,2-a]indol-9-yl)-2-(6-azaspiro[2.5]octan-6-yl)benzamide], the IC50 is 0.05 to 0.5 µM against KIF18A; 0.05 to 0.5 µM in the experiment with OVCAR-3 cells (Homo sapiens, OVCAR-3, 240 h); 0.01 to 0.5 µM in the experiment with HCC1954 cells (Homo sapiens, HCC1954, 144 h); more than 5 µM with HCC1395 cells (Homo sapiens, HCC1395, 144 h).
As for `O=C(Nc1cccc2nn(CC3CC3)cc12)c1ccc(NS(=O)(=O)CCO)cc1N1CCC2(CC1)CC2` [Example 269], the IC50 on KIF18A was not above 0.05 µM; in the experiment with OVCAR-3 cells, 0.05 to 0.5 µM; with HCC1954 cells it was 0.01 to 0.5 µM; with HCC1395 cells, more than 5 µM.
On to `O=C(Nc1ccnc2c1cc1n2CCOC1)c1ccc(NS(=O)(=O)CCO)cc1N1CCC2(CC1)CC2` [Example 303, N-(8,9-dihydro-6H-pyrido[3′,2′:4,5]pyrrolo[2,1-c][1,4]oxazin-4-yl)-4-((2-hydroxyethyl)sulfonamido)-2-(6-azaspiro[2.5]octan-6-yl)benzamide], for which the 50% inhibitory concentration (IC50) at KIF18A is not above 0.05 µM; in the experiment with OVCAR-3 cells (Homo sapiens, OVCAR-3, 240 h) it was 0.05 to 0.5 µM; in the experiment with HCC1954 cells (Homo sapiens, HCC1954, 144 h), 0.01 to 0.5 µM; in the experiment on HCC1395 cells (Homo sapiens, HCC1395, 144 h) it was more than 5 µM.
Consider `O=C(Nc1cccc2c1nc1n2CCOC1)c1ccc(NS(=O)(=O)CCO)cc1N1CCC2(CC1)CC2` [Example 304, N-(3,4-dihydro-1H-benzo[4,5]imidazo[2,1-c][1,4]oxazin-9-yl)-4-((2-hydroxyethyl)sulfonamido)-2-(6-azaspiro[2.5]octan-6-yl)benzamide], for which the half-inhibitory concentration (IC50) against KIF18A was not above 0.05 µM; with OVCAR-3 cells (Homo sapiens, OVCAR-3, 240 h), not above 0.05 µM; in the experiment with HCC1954 cells (Homo sapiens, HCC1954, 144 h), 0.01 to 0.5 µM; in the experiment with HCC1395 cells (Homo sapiens, HCC1395, 144 h), more than 5 µM.
On to `O=C(Nc1ccc(F)c2c1cc1n2CCOC1)c1ccc(NS(=O)(=O)CCO)cc1N1CCC2(CC1)CC2` [Example 305, N-(6-fluoro-3,4-dihydro-1H-[1,4]oxazino[4,3-a]indol-9-yl)-4-((2-hydroxyethyl)sulfonamido)-2-(6-azaspiro[2.5]oct-6-yl)benzamide], for which the IC50 is not above 0.05 µM against KIF18A; 0.05 to 0.5 µM in the experiment with OVCAR-3 cells (Homo sapiens, OVCAR-3, 240 h); 0.01 to 0.5 µM in the experiment on HCC1954 cells (Homo sapiens, HCC1954, 144 h); more than 5 µM with HCC1395 cells (Homo sapiens, HCC1395, 144 h).
As to `CC1OCCn2c1cc1c(NC(=O)c3ccc(NS(=O)(=O)CCO)cc3N3CCC4(CC3)CC4)cccc12` (stereo not drawn) [Example 311, 4-((2-hydroxyethyl)sulfonamido)-N-(1-methyl-3,4-dihydro-1H-[1,4]oxazinyl[4,3-a]indol-9-yl)-2-(6-azaspiro[2.5]oct-6-yl)benzamide], the concentration for half-maximal inhibition (IC50) is not above 0.05 µM against KIF18A, not above 0.05 µM in the experiment on OVCAR-3 cells, 0.01 to 0.5 µM with HCC1954 cells and more than 5 µM in the experiment with HCC1395 cells.
On to `CC1OCCn2c1cc1c(NC(=O)c3ccc(NS(=O)(=O)CCO)cc3N3CCC(=C(F)F)CC3)cccc12` (stereo not drawn) [Example 320, 2-(4-(difluoromethylene)piperidin-1-yl)-4-((2-hydroxyethyl)sulfonamido)-N-(1-methyl-3,4-dihydro-1H-[1,4]oxazino[4,3-a]indol-9-yl)benzamide], for which the IC50 on KIF18A is 0.05 to 0.5 µM; in the experiment on OVCAR-3 cells (Homo sapiens, OVCAR-3, 240 h), not above 0.05 µM; with HCC1954 cells (Homo sapiens, HCC1954, 144 h), 0.01 to 0.5 µM; in the experiment on HCC1395 cells (Homo sapiens, HCC1395, 144 h), more than 5 µM.
For the molecule `COC1c2cc3c(NC(=O)c4ccc(NS(=O)(=O)CCO)cc4N4CCC5(CC4)CC5)cccc3n2CCC1(F)F` (stereo not drawn) [Example 340, N-(8,8-difluoro-9-methoxy-6,7,8,9-tetrahydropyridino[1,2-a]indol-1-yl)-4-((2-hydroxyethyl)sulfonamido)-2-(6-azaspiro[2.5]oct-6-yl)benzamide], the half-maximal inhibitory concentration (IC50) against KIF18A was 0.05 to 0.5 µM; with OVCAR-3 cells (Homo sapiens, OVCAR-3, 240 h), not above 0.05 µM; in the experiment on HCC1954 cells (Homo sapiens, HCC1954, 144 h), 0.01 to 0.5 µM; with HCC1395 cells (Homo sapiens, HCC1395, 144 h) it was more than 5 µM.

What is called IC50 is the concentration that inhibits the measured activity by half. Low values mean higher potency, high ones lower potency.
